Measured values published in ChEMBL document CHEMBL1143974, “Synthesis and cyclooxygenase inhibitory activities of linear 1-(methanesulfonylphenyl or benzenesulfonamido)-2-(pyridyl)acetylene regioisomers” (Bioorg Med Chem, 2008).

Experiments:
[1] = target: T1, Prostaglandin G/H synthase 1 (Ovis aries, UniProt P05979); assay: Inhibition of ovine COX1 by enzyme immuno assay
T1 sequence (P05979 whole entry): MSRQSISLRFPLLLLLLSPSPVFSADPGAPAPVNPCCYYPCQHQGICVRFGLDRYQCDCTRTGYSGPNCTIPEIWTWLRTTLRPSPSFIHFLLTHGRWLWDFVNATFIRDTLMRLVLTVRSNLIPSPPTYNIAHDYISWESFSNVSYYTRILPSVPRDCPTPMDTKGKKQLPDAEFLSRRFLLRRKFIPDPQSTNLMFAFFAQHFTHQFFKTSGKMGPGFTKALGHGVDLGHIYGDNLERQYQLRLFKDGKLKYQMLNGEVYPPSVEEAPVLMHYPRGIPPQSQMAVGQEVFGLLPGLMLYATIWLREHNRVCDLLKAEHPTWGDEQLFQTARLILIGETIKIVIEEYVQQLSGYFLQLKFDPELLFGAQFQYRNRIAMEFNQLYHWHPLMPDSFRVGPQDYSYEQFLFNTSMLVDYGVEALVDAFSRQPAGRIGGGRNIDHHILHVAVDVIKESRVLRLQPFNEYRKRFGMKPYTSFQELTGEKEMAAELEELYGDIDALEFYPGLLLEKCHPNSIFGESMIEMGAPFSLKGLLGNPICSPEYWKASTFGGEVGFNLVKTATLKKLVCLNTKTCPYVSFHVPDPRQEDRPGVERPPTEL

Rattus norvegicus = assay: Antiinflammatory activity against carrageenan-induced foot paw edema in orally dosed rat after 3 hrs; assay type: functional; conditions: po, read-out: ID50 (the source's name)
Ovis aries = species: Ovis aries; assay: Selectivity index, ratio of IC50 for ovine COX1 to IC50 for ovine COX2

Structure (SMILES)	IC50 [1]	Ratio IC50 (Ovis aries)	ED50 (Rattus norvegicus)
CS(=O)(=O)c1cccc(C#Cc2ccncc2)c1	> 100 µM	> 312	
CC(=O)Oc1ccccc1C(=O)O [ASPIRIN]			129 mg/kg
CS(=O)(=O)c1cccc(C#Cc2ccccn2)c1	31.6 µM		76.4 mg/kg
CS(=O)(=O)c1ccccc1C#Cc1ccccn1	0.28 µM		
CS(=O)(=O)c1ccccc1C#Cc1ccncc1	0.26 µM		
CS(=O)(=O)c1cccc(C#Cc2cccnc2)c1	> 100 µM	> 3.1	
CS(=O)(=O)c1ccc(C#Cc2cccnc2)cc1	3.2 µM		59.9 mg/kg

Further lines, with some results ahead:

IC50 [1]	Ratio IC50 (Ovis aries)	Structure (SMILES)	ED50 (Rattus norvegicus)
> 100 µM		Cc1cccnc1C#Cc1ccc(S(C)(=O)=O)cc1	
1.3 µM		Cc1cccnc1C#Cc1ccc(S(N)(=O)=O)cc1	76.6 mg/kg
3.9 µM		NS(=O)(=O)c1ccc(C#Cc2ccncc2)cc1	
2 µM		Cc1cccnc1C#Cc1ccccc1S(C)(=O)=O	
31.7 µM		CS(=O)(=O)c1ccc(C#Cc2ccccn2)cc1	
9.3 µM		NS(=O)(=O)c1ccc(C#Cc2ccccn2)cc1	
